{
  "source": "patent EP0250264A1",
  "about": "“Irreversible dopamine-Beta-hydroxylase inhibitors” (SMITHKLINE BECKMAN CORPORATION, priority 1986, dated 1987)",
  "key": {"[1]": {"system": "Spontaneously hypertensive rats", "assay": "Mean arterial blood pressure in spontaneously hypertensive rats, monitored with indwelling tail artery cannulae", "type": "in vivo", "details": "100 mg/kg intraperitoneally; for blood pressure reduction remaining at 260 minutes: 260 minutes after administration, b38 compares to vehicle-treated controls", "description": "Spontaneously hypertensive rats were dosed with a suspension or solution of ß-ethynylbenzeneethanamine- methane sulfonate at a dose of 100 mg/kg intraperitoneally, and mean arterial blood pressure was monitored for 260 minutes using indwelling cannulae positioned in the tail arteries.\nBlood pressure also was monitored in spontaneously hypertensive rats given 100 mg/kg intraperitoneally B-ethynyl-3-hydroxybenzeneethanamine hydrochloride."}, "[2]": {"target": "T1, DBH (Homo sapiens, UniProt P09172)", "T1 sequence (P09172 1-617)": "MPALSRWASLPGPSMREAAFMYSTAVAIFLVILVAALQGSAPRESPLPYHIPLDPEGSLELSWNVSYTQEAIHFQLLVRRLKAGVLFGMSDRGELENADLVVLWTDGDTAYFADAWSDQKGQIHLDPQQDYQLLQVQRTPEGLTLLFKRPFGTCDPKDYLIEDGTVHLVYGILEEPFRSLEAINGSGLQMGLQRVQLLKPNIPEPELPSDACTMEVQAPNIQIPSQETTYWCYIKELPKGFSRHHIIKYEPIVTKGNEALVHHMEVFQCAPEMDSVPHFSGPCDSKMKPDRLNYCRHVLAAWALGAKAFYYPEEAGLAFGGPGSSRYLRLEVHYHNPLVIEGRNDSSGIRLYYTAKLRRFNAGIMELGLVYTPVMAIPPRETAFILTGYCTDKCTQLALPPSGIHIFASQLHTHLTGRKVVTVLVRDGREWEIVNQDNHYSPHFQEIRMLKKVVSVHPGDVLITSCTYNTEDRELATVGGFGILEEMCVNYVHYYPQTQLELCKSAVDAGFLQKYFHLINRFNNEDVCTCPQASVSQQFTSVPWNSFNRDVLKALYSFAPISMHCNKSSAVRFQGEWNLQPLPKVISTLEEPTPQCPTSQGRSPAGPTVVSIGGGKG", "assay": "DBH inhibition assay, conversion of tyramine to octopamine (enzyme inhibition kinetic study)", "type": "biochemical", "details": "enzyme incubated for up to 50 minutes with 10, 20, 40, or 80 µM concentrations", "description": "DBH activity was assayed by a standard procedure for measuring the conversion of tyramine to octopamine in the presence of DBH. J.J. Pisano, et al., Biochim. Biophy. Acta, 43, 566-68 (1960). Octopamine was assayed following sodium periodate oxidation to p-hydroxybenzaldehyde by measuring spectrophotometric absorbance at 330 nm.\nTo measure DBH inhibition, the enzyme was incubated for up to 50 minutes with 10, 20, 40, or 80 µM concentrations of ß-ethynyl-4-hydroxybenzeneethanamine."}, "[3]": {"target": "T1, DBH", "details": "cited from earlier work"}},
  "data": [
    {"compound": "C#CC(CN)c1cccc(O)c1", "note": "(stereo not shown) [ß-Ethynyl-3-Hydrpxybenzeneethanamine]", "values": [
      {"measurement": "blood pressure reduction remaining at 260 minutes", "setting": "[1]", "result": "approximately ten"},
      {"measurement": "blood pressure reductions", "setting": "[1]; forty minutes following compound administration", "result": "thirty"}
    ]},
    {"compound": "C#CC(CN)c1ccc(O)cc1.Cl", "note": "(stereo not shown) [ß-ethynyl-4-hydroxybenzeneethanamine, ß-Ethynyl-4-Hydroxybenzeneethanamine Hydrochloride]", "values": [
      {"measurement": "DBH inhibition", "setting": "[2]", "result": "concentration- dependent DBH inhibition"},
      {"measurement": "enzyme inhibition, dependence on time", "setting": "[2]", "result": "time-dependent"}
    ]},
    {"compound": "C#CC(CN)c1ccccc1.CS(=O)(=O)O", "note": "(stereo not shown) [ß-ethynylbenzeneethanamine- methane sulfonate]", "values": [
      {"measurement": "blood pressure reduction remaining at 260 minutes", "setting": "[1]", "result": "approximately twenty"},
      {"measurement": "reductions in blood pressure", "setting": "[1]; twenty to forty minutes following administration", "result": "approximately twenty"}
    ]},
    {"compound": "phenylpicolinic acid", "values": [
      {"measurement": "inhibitory activity relative to fusaric acid", "setting": "[3]", "result": "twice the inhibitory activity of fusaric acid"}
    ]}
  ]
}
